According to ChEMBL document CHEMBL1126154, “Pyrrole mannich bases as potential antipsychotic agents” (J Med Chem, 1992):

Legend:
[1] = target: Serotonin 2 (5-HT2) receptor (Rattus norvegicus, UniProt P30994+P08909+P14842); test: The compound was tested for its binding affinity towards 5-hydroxytryptamine 2 receptor by displacing [3H]ketanserin radioligand in rat cerebral cortex; type: tissue-based
[2] = target: T1, Serotonin 1 (5-HT1) receptor (Rattus norvegicus, UniProt P28564+P30940+P19327+P28565); test: The compound was tested for its binding affinity towards 5-hydroxytryptamine 1 receptor by displacing [3H]5-HT radioligand in rat cerebral cortex; type: tissue-based
Rattus norvegicus [3] = test: The percentage production of catalepsy in rat at a dose of 57 mg/kg ip.; type: functional
Rattus norvegicus [4] = test: Antipsychotic activity at a dose 10 times the ED50 value for CAR block for production of catalepsy in the rat (following i.p. dosing); type: functional; conditions: ip
[5] = target: T2, Adrenergic receptor alpha-1 (Rattus norvegicus, UniProt P15823+P23944+P43140); test: The compound was tested for its binding affinity towards Alpha-1 adrenergic receptor by displacing [3H]WB-4101 radioligand in rat cerebral cortex; type: tissue-based
T2 sequence (P15823 whole entry): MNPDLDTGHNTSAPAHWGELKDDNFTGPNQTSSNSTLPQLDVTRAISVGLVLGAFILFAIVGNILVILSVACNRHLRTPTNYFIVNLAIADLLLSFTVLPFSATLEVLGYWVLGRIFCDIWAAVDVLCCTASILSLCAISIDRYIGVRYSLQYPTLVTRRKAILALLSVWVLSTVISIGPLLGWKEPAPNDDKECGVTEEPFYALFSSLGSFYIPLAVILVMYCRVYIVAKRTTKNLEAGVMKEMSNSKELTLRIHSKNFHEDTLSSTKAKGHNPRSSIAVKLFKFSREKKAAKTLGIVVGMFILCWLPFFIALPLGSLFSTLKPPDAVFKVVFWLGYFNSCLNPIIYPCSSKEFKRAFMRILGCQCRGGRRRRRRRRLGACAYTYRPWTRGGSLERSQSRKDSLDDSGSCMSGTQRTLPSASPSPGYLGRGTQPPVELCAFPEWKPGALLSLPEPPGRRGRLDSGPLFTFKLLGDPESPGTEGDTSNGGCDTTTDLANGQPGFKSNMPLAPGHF
T2 sequence (P23944 whole entry): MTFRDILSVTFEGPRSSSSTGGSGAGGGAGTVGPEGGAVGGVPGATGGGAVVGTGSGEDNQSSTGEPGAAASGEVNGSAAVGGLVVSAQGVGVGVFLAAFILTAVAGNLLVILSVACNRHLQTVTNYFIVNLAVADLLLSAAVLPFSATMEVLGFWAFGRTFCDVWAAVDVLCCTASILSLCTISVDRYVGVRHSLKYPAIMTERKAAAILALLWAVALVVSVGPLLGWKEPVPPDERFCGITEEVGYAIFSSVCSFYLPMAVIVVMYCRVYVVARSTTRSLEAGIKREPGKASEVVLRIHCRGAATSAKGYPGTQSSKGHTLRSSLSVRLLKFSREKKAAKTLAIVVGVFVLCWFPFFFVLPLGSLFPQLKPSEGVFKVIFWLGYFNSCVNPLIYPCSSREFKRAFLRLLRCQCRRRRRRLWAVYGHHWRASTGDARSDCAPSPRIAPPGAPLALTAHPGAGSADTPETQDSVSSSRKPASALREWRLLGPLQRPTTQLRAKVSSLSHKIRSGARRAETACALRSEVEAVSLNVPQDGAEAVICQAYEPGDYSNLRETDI
T2 sequence (P43140 whole entry): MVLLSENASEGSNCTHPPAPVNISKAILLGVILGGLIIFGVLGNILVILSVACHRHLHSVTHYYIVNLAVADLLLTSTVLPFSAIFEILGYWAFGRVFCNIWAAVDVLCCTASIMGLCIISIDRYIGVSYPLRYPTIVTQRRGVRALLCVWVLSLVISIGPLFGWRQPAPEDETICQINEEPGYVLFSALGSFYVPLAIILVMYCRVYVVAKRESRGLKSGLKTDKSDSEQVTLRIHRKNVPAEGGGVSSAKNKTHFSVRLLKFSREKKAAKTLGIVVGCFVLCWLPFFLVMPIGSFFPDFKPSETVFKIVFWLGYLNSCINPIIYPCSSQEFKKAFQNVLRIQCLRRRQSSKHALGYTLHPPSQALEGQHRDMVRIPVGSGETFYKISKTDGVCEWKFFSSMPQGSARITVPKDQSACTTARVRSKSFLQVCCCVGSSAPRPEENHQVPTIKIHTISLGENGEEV

Rattus norvegicus [6] = test: The compound was measured at a dose 10 times the ED50 value for CAR block for production of catalepsy in the rat via oral administration.; type: functional
Rattus norvegicus [7] = test: The percentage production of catalepsy in rat at a dose of 100 mg/kg ip.; type: functional
[8] = target: T3, 5-hydroxytryptamine receptor 1A (Rattus norvegicus, UniProt P19327); test: Binding affinity towards 5-hydroxytryptamine 1A receptor by displacing [3H]WB-4101 from rat hippocampus; type: tissue-based
T3 sequence (P19327 whole entry): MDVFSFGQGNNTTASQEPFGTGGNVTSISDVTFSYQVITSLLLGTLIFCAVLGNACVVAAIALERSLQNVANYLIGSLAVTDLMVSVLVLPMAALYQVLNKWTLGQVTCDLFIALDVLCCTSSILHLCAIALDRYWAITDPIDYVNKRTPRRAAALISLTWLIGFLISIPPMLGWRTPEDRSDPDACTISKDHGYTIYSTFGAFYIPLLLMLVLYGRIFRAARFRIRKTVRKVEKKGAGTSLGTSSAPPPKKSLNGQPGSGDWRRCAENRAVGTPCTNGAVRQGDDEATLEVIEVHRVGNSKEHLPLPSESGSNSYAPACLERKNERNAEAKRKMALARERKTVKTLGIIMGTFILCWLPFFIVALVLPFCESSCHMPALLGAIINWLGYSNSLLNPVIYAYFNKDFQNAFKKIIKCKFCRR

Rattus norvegicus [9] = test: The percentage production of catalepsy in rat at a dose of 37 mg/kg ip.; type: functional
[10] = target: 5-hydroxytryptamine receptor 1B (Rattus norvegicus, UniProt P28564); test: The compound was tested for its binding affinity towards 5-hydroxytryptamine 1B receptor by displacing [3H]serotonin radioligand in rat cerebral cortex; type: tissue-based
Sequence of 5-hydroxytryptamine receptor 1B (P28564 whole entry): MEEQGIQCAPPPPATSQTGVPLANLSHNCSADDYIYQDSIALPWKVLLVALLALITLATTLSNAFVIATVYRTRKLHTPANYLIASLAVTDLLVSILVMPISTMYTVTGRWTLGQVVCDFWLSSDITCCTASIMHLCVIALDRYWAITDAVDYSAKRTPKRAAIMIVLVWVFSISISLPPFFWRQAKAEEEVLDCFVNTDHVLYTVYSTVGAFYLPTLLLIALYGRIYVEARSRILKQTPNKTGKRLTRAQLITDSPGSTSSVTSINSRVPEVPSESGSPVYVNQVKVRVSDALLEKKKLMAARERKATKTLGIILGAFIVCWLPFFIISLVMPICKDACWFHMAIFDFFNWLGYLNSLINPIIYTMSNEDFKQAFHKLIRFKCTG

Rattus norvegicus [11] = test: The percentage production of catalepsy in rat at a dose of 58 mg/kg ip.; type: functional
Rattus norvegicus [12] = test: The percentage production of catalepsy in rat at a dose of 50 mg/kg ip.; type: functional
Rattus norvegicus [13] = test: The percentage production of catalepsy in rat at a dose of 90 mg/kg ip.; type: functional
Rattus norvegicus [14] = test: The percentage production of catalepsy in rat at a dose of 27 mg/kg ip.; type: functional
Rattus norvegicus [15] = test: The percentage production of catalepsy in rat at a dose of 40 mg/kg ip.; type: functional
Rattus norvegicus [16] = test: The percentage production of catalepsy in rat at a dose of 20 mg/kg ip.; type: functional
Rattus norvegicus [17] = species on record: Rattus norvegicus; test: ED50 value for catalepsy indicates the dose required to produce a 50% of maximum catalepsy score. parentheses; type: functional
[18] = target: T3, 5-hydroxytryptamine receptor 1A; test: biochemical
Description: The compound was tested for its binding affinity towards 5-hydroxytryptamine 1A receptor by displacing [3H]WB-4101 radioligand in rat hippocampus

[19] = target: T1, Serotonin 1 (5-HT1) receptor
Description: The binding affinity was measured on serotonin 5-hydroxytryptamine 1 receptor in rat brain tissue

Rattus norvegicus [20] = species on record: Rattus norvegicus; test: ED50 value for catalepsy indicates the dose required to produce a 50% of maximum catalepsy score. parentheses value indicate 95% confidence limit.; type: functional
Rattus norvegicus [21] = species on record: Rattus norvegicus; test: ED50 value for catalepsy indicates the dose required to produce a 50% of maximum catalepsy score.; type: functional
Rattus norvegicus [22] = test: The percentage production of catalepsy in rat at a dose of 70 mg/kg ip.; type: functional
Rattus norvegicus [23] = species on record: Rattus norvegicus; test: ED50 value for catalepsy indicates the dose required to produce a 50% of maximum catalepsy score; type: functional, organism-based
Rattus norvegicus [24] = species on record: Rattus norvegicus; test: The compound was measured at a dose 10 times the ED50 value for CAR block for production of catalepsy in the rat; type: functional, organism-based
Rattus norvegicus [25] = test: The percentage production of catalepsy in rat at a dose of 4 mg/kg ip.; type: functional
D(2) dopamine receptor = D(2) dopamine receptor (Rattus norvegicus, UniProt P61169); test: The compound was tested for its binding affinity towards Dopamine receptor D2 by displacing [3H]spiperone radioligand in rat striatum
Sequence of D(2) dopamine receptor (P61169 whole entry): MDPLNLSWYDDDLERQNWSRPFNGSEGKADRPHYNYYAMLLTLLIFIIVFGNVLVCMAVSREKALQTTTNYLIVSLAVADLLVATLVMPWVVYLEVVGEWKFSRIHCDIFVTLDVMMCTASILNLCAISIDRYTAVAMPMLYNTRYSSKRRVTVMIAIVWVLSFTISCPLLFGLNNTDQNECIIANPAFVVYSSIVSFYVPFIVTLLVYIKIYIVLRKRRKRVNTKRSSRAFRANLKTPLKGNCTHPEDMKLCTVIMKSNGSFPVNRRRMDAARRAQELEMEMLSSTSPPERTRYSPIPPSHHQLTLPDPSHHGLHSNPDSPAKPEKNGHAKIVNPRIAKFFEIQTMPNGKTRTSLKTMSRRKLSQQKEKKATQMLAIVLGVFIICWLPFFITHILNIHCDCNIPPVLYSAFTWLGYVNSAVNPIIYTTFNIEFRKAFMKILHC

Rattus norvegicus [26] = test: The percentage production of catalepsy in rat at a dose of 54 mg/kg ip.; type: functional
[27] = Rattus norvegicus, po, read-out: ED50

Compound	Ki [1]	Ki [2]	ED50 (Rattus norvegicus [4])	Ki [5]	ED50 (Rattus norvegicus [6]; [27])	also measured
CC(C)Oc1ccccc1N1CCN(Cc2ccc(CN3CCCCCC3=O)n2C)CC1	1000 nM	68.8 nM	5.7 mg/kg	16.3 nM	18.9 mg/kg	% catalepsy at 57 mg/kg (Rattus norvegicus [3]): 26%
CC(C)c1ccccc1N1CCN(Cc2ccc(CN3CCCCCC3=O)n2C)CC1	110 nM	82.1 nM	10 mg/kg	53.9 nM	> 30 mg/kg	% catalepsy at 100 mg/kg (Rattus norvegicus [7]): 17%
CCC(C)Oc1ccccc1N1CCN(Cc2ccc(CN3CCCCC3=O)n2C)CC1 (stereo not drawn)	267 nM	29.3 nM	3.7 mg/kg	17.4 nM		Ki [8]: 1.8 nM; % catalepsy at 37 mg/kg (Rattus norvegicus [9]): 17%; Ki [10]: 45 nM
Cn1c(CN2CCN(c3cccc(C(F)(F)F)c3)CC2)ccc1CN1CCCC1=O	1000 nM	156 nM	5.8 mg/kg	> 1000 nM		% catalepsy at 58 mg/kg (Rattus norvegicus [11]): 56%
Cn1c(CN2CCN(c3cccc(Cl)c3)CC2)ccc1CN1CCCCC1=O			10.4 mg/kg			Ki [10]: 95 nM; % catalepsy at 50 mg/kg (Rattus norvegicus [12]): 28%
CC(C)c1ccccc1N1CCN(Cc2ccc(CN3CCCCC3=O)n2C)CC1	137 nM	41.3 nM	8.9 mg/kg		> 30 mg/kg	% catalepsy at 90 mg/kg (Rattus norvegicus [13]): 19%
CC(C)Oc1ccccc1N1CCN(Cc2ccc(CN3CCCC3=O)n2C)CC1	386 nM	120 nM	2.2 mg/kg	7.3 nM	> 20 mg/kg	% catalepsy at 27 mg/kg (Rattus norvegicus [14]): 52%
CC(C)Oc1ccccc1N1CCN(Cc2ccc(CN3CCCCCCC3=O)n2C)CC1	260 nM	18.1 nM	4 mg/kg	20.8 nM	> 30 mg/kg	% catalepsy at 40 mg/kg (Rattus norvegicus [15]): 4.2%; Ki [8]: 1.7 nM; Ki [10]: 75 nM
CCOc1ccccc1N1CCN(Cc2ccc(CN3CCCC3=O)n2C)CC1	455 nM	76 nM	1.8 mg/kg	27.5 nM	32 mg/kg	% catalepsy at 20 mg/kg (Rattus norvegicus [16]): 97%
COc1ccccc1N1CCNCC1	> 100 nM	28 nM	5.6 mg/kg			ED50 (Rattus norvegicus [17]): > 45 mg/kg
CN(C)CCCN1c2ccccc2Sc2ccc(Cl)cc21 [CHLORPROMAZINE]			1.9 mg/kg			Ki [18]: 179 nM; Ki [19]: > 1000 nM; ED50 (Rattus norvegicus [20]): 9.4 mg/kg
CN1CCN(C2=Nc3cc(Cl)ccc3Nc3ccccc32)CC1 [CLOZAPINE]					32.5 mg/kg	ED50 (Rattus norvegicus [21]): > 70 mg/kg; % catalepsy at 70 mg/kg (Rattus norvegicus [22]): 10%
Cc1nc2n(c(=O)c1CCN1CCC(c3noc4cc(F)ccc34)CC1)CCCC2 [RISPERIDONE]					2.2 mg/kg	ED50 (Rattus norvegicus [23]): 3.5 mg/kg; ED50 (Rattus norvegicus [24]): 0.32 mg/kg; % catalepsy at 4 mg/kg (Rattus norvegicus [25]): 50%
Cc1nc2sccn2c(=O)c1CCN1CCC(=C(c2ccc(F)cc2)c2ccc(F)cc2)CC1 [RITANSERIN]			> 3 mg/kg	49.5 nM		Ki (D(2) dopamine receptor): 53.2 nM
CC(C)Oc1ccccc1N1CCN(Cc2ccc(CN3CCCCC3=O)n2C)CC1 [RWJ-25730]	1006 nM					% catalepsy at 54 mg/kg (Rattus norvegicus [26]): 12.1%; ED50 (Rattus norvegicus [6]): 10.4 mg/kg
